For assay [1], the system named is chronic bacterial prostatitis. The method, then: The investigation was performed on 41 white mongrel male rats weighing on average 230 g. Bacterial prostatitis was induced in the rats by transurethral introduction of enterotoxigenic E.coli suspension K-2935 (01: K1: H-). A glycerine-lubricated catheter was inserted into the animals' urethra under a light ether narcosis after treating the external urethra opening with 70 % alcohol. 0.2 ml of bacterial suspension (10^9 colony-forming units per ml) was instilled via catheter with a syringe. Control animals were injected with 0.2 ml of 0.9 % natural saline solution through the catheter. […] The injections were performed daily for 10 days. The control groups included intact animals, animals with untreated chronic prostatitis and those treated with injections of 0.9 % natural saline solution applied by the same plan.
All the rats were euthanasised by decapitation on the 70th day of the experiment. The animals were subjected to complete autopsy. Their testes and epididymes, prostate, seminal vesicles, bulbourethral glands, urinary bladder, kidneys with ureters and other intrinsic organs were examined. For histology the ventral segment of the prostate was fixed in 10 % neutral formalin and - after a standard processing with a series of solvents - embedded in paraffin. 5-7-µm thin tissue sections were stained with haematoxylin-eosin.
The degree of prostatitis manifestation throughout the groups was assessed according to the below 5-point scale: • 1 point - traces of prostatitis (small foci of fibrosis, interstitial lymphocytic and histiocytic infiltration); • 2 points - foci of chronic prostatitis with inflammatory infiltration (basically, interstitial one) occupying less than ¼ of the gland section; • 3 points - prostatitis foci with large inflammatory infiltrates surrounding the ducts, acini and blood vessels, with leukocytic conglomerations in the glandular lumens, embracing ¼ - ½ of the gland section; • 4 points - expressed prostatitis covering ½ - ¾ of the gland section; • 5 points - strongly expressed prostatitis affecting over ¾ of the gland section.
The prostate sites were also used for electron microscopic examination and tests on the content of zinc, which makes a part of compositions with anti-microbial activity.

For assay [2], the system named is processes of free radical oxidation. To be noted: 0.1 µg per injection s.c. for 10 days. The method, then: The animals were subcutaneously administered with 0.1 µg of the tetrapeptide per injection for 10 days. The controls were similarly injected with 0.9 % natural saline solution. The rats were euthanasised on the next day after the last introduction of the tetrapeptide.
Afterwards, samples of the brain and liver tissues and blood serum were prepared and peroxide lipid oxidation (PLO) intensity in them was studied by the content of diene conjugates and Schiff's bases. The activity of glutathione peroxidase and superoxide dismutase was defined as well by the method of suppressing nitroblue tetrasolium oxidation with biological material.

The test system of the next assay is urinary bladder explants. The following applies: 20 ng/ml, third day of cultivation.

Where two headings read alike, the source gives them in different places. Marks after values point to notes of the source that are not given here.

The values below come from patent EP1353939B1, “TETRAPEPTIDE REGULATING PROSTATE FUNCTIONS AND ITS COMPOSITIONS AND USES” (Sankt-Peterburgskaya Obschestvennaya Organizatsia …, priority 2001, dated 2004).

Experimental for urinary bladder explants: The experiments were carried out in 45 urinary bladder fragments of 10-11-days old chicken embryos. The nutrient medium for the explant cultivation included 35 % of Eagle's solution, 25 % of foetal calf serum, 35 % of Hanks' solution, 5 % of chicken embryonic extract and was added glucose (0.6 %), insulin (0.5 unit/ml), penicillin (100 unit/ml) and glutamine (2 mM). The urinary bladder fragments were placed in this medium and cultivated in Petri's dishes in a thermostat at 36.7°C for 48 hours. […] Square index (SI) was taken for a biological activity criterion and calculated as a correlation of the total explant square (including the growth zone) to the initial square of a urinary bladder fragment. The SI values were expressed per cent, the control SI value - taken for 100 %.

Turning to “lysyl-glutamyl-aspartyl-proline [Lys-Glu-Asp-Pro tetrapeptide]”, in assay [1] (0.1 µg per injection s.c. daily for 10 days), the “positive dynamics of inflammatory processes in the prostate” value is given as 7 cases out of 11. Moreover, in assay [1] (0.1 µg per injection s.c. daily for 10 days, from day 45 after infection, 5-point scale), the “Degree of prostatitis in points Per rat in the group” value came to 1.81 ± 0.09 points. In addition, the “Degree of prostatitis in points Per prostatitis-affected rat” value in assay [1] (0.1 µg per injection s.c. daily for 10 days, 5-point scale) was 2.86* points. The “mean concentration of zinc in the prostate tissue” value in assay [1] (after application of the tetrapeptide (Figure 2)) is “decreased”. Moreover, the “Number of rats in the group Prostatitis -affected” value in assay [1] (of 11 rats in total, 0.1 µg per injection s.c. daily for 10 days) was 7. In assay [2] (Blood serum), the Diene conjugates was 5.28 ± 0.33 nmol/mL, the Glutathione peroxidase is listed as 2.85 ± 0.06 mmol of GlSH/min/mg of protein, the “Schiff's bases” value came to 17.40 ± 1.54 conv. unit/ml and the Superoxide dismutase is 0.826 ± 0.060 conv. unit/mg of protein. Besides, in assay [2] (Brain), the Diene conjugates is 46.14 ± 2.91 mnol/ml, the Glutathione peroxidase was 50.7±0.2 mmole of GlSH/min/mg of protein, the “Schiff's bases” value was 237.3 ± 17.8 conv. unit/ml and the Superoxide dismutase is 26.7 ± 3.0 conv. unit/mg of protein. Besides, in assay [2] (Liver), the Diene conjugates amounted to 44.76 ± 2.48 nmol/mL, the Glutathione peroxidase is recorded as 798.0±29.1 mmol of GlSH/min/mg of protein, the “Schiff's bases” value is reported as 556.5 ±37.6 conv. unit/ml and the Superoxide dismutase was 54.1 ± 7.9 conv. unit/mg of protein. Moreover, the “increase in the explant SI as compared to the control value” in the assay with urinary bladder explants is on record as 23%.
